Each structure is given as a SMILES string.

Data on one compound can be found in US20240238251A9, “A Composition Comprising Heterocyclic Compounds, Preparation Method and Application Thereof” (SHANGHAI YASHENG PHARMACEUTICAL TECHNOLOGY CO., LTD., priority 2020, published 2024).

The nature of the data set: Pharmacokinetics after oral administration in dogs. Format: in vivo, beagle dogs. The method, then:
After fully grinding and mixing the samples with PEG400 (the concentration in the sample solution was 5%), a small amount (about 2 ml) of 0.2% HPMC aqueous solution was added to grind into a uniform paste until there were no large particles. Under the condition of continuous grinding, 0.2% HPMC aqueous solution was added to a sufficient amount and maintained stirring (800 RPM) for 5 minutes. After sealing the sample solution container with sealing film, it was placed in the ultrasonic instrument (40 kHz) for ultrasonic for 20 minutes (to avoid the rise of ultrasonic medium water temperature during ultrasonic process, the water temperature was controlled within 40° C.); Stopped the ultrasound, mixed the suspension evenly before use (stirring for about 3 minutes), and then sampled immediately (the concentration of the sample was 6 mg/ml).
Test method: three male beagle dogs were selected and divided into test article 1 (APG-115 particles) group and test article 2 (APG-115 hydrate) group. Each group received single oral capsule administration: after the administration of test article 1, after an 8-day cleaning period, the group name was changed to test article 2, and so on.
Blood samples were collected and plasma was separated at 0.5, 1.0, 2.0, 4.0, 6.0, 10, 24, 48, 72, 96, 120, 144 and 168 hours before and after each round of administration. All plasma samples were mailed to the client for testing. The concentration of APG-115 in dog plasma was analyzed by LC-MS/Ms. The lower limit of quantification of the method was 50 ng/ml. The non compartmental model method (NCA) of the metabolic kinetic data analysis software winnonlin 8.0.0.3176 was used to analyze the plasma concentration data and calculate the pharmacokinetic parameters. See table 21 to evaluate the kinetic characteristics of APG-115 in animals after administration.

The mark [1] stands for this setting: dog, plasma, male beagle dogs, single oral administration, Mean.
[2] abbreviates: male beagle dogs, single oral administration, Mean.

Under setting [1], `CCN1[C@@H](C(=O)NC23CCC(C(=O)O)(CC2)CC3)[C@H](c2cccc(Cl)c2F)[C@]2(C(=O)Nc3cc(Cl)ccc32)C12CCCCC2` [APG-115 hydrate] showed an AUC(0-inf) of 33400 ng·h/mL, an AUC(0-t) of 4580 ng·h/mL, a Cmax of 136 ng/mL and an MRT of 31.4 h. Moreover, under setting [1], the Tmax amounted to 6 h and the half-life was 346 h. Besides, the exposure in dogs result (dogs, oral, in words) is on record as “very low”. Under setting [2], the CL came out at 1.013 mL/min/kg and the Vd is 29.08877 L/kg.

As a reminder, the AUC(0-inf) is the area under the concentration-time curve extrapolated to infinity. What is called AUC(0-t) is exposure summed from dosing to a finite time, without extrapolation to infinity. The Cmax is the peak of the concentration-time curve. By MRT is commonly meant a mean duration of stay, worked out from the concentration-time curve. Usually Tmax stands for the time at which the peak concentration occurs. A word on the half-life: it is the time in which the quantity being followed falls by half.
